Consider two compounds from patent US11759480B2, “Compositions and methods for CAR T cell therapy” (ENDOCYTE, INC., priority 2017, dated 2023).

For one series, the system named is THP-1-FRβ tumors. Kind of series: EC17/CAR-T therapy in folate receptor-β positive acute myeloid leukemia model (Example 44). The format is in vivo. The text has this: THP-1-FRβ tumors were generated by intravenous implantation of cultured cells at 5×10^6 per animal in 9 NSG mice.
Starting 11 days post tumor implantation, ˜8.3 million of GFP+4M5.3 CAR-T cells were intravenously infused into each mouse. Mice were divided into 3 groups (n=3): (1) CAR-T cell alone, (2) CAR-T cells with weekly EC17 doses at 500 nmol/kg, and (3) CAR-T cells with weekly EC17 doses at 500 nmol/kg plus sodium fluorescein rescue when needed. The first EC17 dose was given two days after CAR-T cell administration. All EC17 doses were given towards the end of day (˜3-4 PM) to allow cytokine release syndrome (CRS) to develop overnight. […] No additional sodium fluorescein rescue was given for additional EC17 dosing in Group 3. Mice were weighed and monitored for sign of health and disease development. […] Upon euthanasia, all mice were subject to gross examination for the presence of tumor masses. All visible tumor masses were excised, counted and weighed. Blood, tumor metastases (mets) and normal adjacent tissues were collected for same-day flow cytometry analysis.
Plasma was removed from predetermined volumes of whole EDTA treated blood with a 10-minute 4° C. spin at 3000×g and the resulting cell pellets were incubated with a 10-fold volume of room temperature 1×RBC lysis solution (prepared from 10× stock; Biolegend, catalog #420301) for 5 minutes, centrifuged at 400×g for 5 min. The cell pellets were washed in a 10-fold volume of ice-cold phosphate-buffered saline (PBS, pH=7.4 and filtered with a 40 μm nylon filter then pelleted again. The leukocyte cell pellets were then resuspended in a flow cytometry staining solution (1% bovine serum albumin, […] human IgG (Equitech Bio, cat #SLH56-0001), 0.9% sodium azide in PBS, pH=7.4) supplemented with both anti-mouse FcγIII/II receptor (CD16/CD32) block (clone 2.4G2; BD Bioscience, catalog #553142 at 1:100 (v/v) dilution) and anti-human Fc Block (BD Biosciences, catalog #564220 at 1:50 (v/v) dilution). Surface marker staining was performed with the addition of the following fluorochrome conjugated monoclonal antibodies added to each sample for 20 minutes on ice in the dark: anti-human CD45-APCeF780 (clone HI30, eBioscience #47-0459-42 at 1:20 (v/v) dilution), anti-human CD3-BV650 (clone SK7, BD Bioscience, catalog #563999 at 1:20 (v/v) dilution), anti-human CD137-BV650 (clone 4B4-1, BD Bioscience #564092 at 1:20 (v/v) dilution), anti-human CD8α-PECy7 (clone RPA-T8, BD Bioscience, catalog #557746 at 1:20 (v/v) dilution), anti-human CD4-Percpe710 (clone SK3, eBioscience catalog #46-0047-42 at 1:20 (v/v) dilution), anti-human CD25-PE (clone M-A251, BD Bioscience, catalog #555432 at 1:10 (v/v) dilution), anti-human CD33-PE (clone WM53, BD Bioscience, catalog #555450 at 1:5 (v/v) dilution), anti-human CD123-AF647 (clone 9F5, BD Bioscience, catalog #563599 at 1:20 (v/v) dilution). Biotinylated anti-human folate receptor-β (clone m909) was kindly provided by the Low lab at Purdue University (Arthritis Res Ther. 2011; 13(2):R59) and detected using streptavidin-eFluor660 (eBioscience, catalog #50-4317 at 1:1000 (v/v) dilution). Folic acid binding was interpreted as a measure of functional folate receptor and was determined by incubation with an Alexa Fluor conjugated folic acid which was synthesized in house. After leukocyte staining, cells were washed with PBS and resuspended in cold PBS containing 3 μM propidium idodide. Flow cytometry data was collected on the Gallios flow cytometer (Beckman Coulter, Brea, Calif.), where a minimum of 15,000 CountBright™ bead events were collected in an attempt to collect enough leukocyte events for an accurate count of infused CAR T cells in each mouse blood sample. Determination of the concentration of CAR T cells in each blood sample was calculated according to Invitrogen's instructions. Briefly, CAR T cells were identified as human CD45+ GFP+ events and easily distinguished and counted using the Kaluza™ flow cytometry software version 1.5. […]

The next series relates to MDA-MB-231 tumors. In words: Host mouse cytokines after NaFL rescue (Example 48). The format is in vivo, NSG mice. Here is the method:
In the first part of the study (FIG. 75), mice were treated with EC17 and FITC-CAR-T cells. When mice started to show sCRS, one dose of 60 umol/kg NaFL was injected for rescue. Mouse blood samples were then collected at both 7 hours and 27 hours post NaFL rescue. Mouse cytokine levels in blood were analyzed using a mouse inflammation panel kit (Cat. No. 740446) from BioLegend by following the manufacturer's instructions. FIGS. 76 A-E show cytokine levels 7 hours post rescue. FIGS. 77A-C show cytokine levels 27 hours post rescue.
In the second part of the study, a series of concentrations of NaFL were tested for their rescue efficiency (FIG. 78). As shown in FIGS. 79-81, mice cytokine levels in blood were also dependent on the concentrations of sodium fluorescein used for rescue, and the median effective dose is about 0.6 μmol/kg with cytokines tested (e.g. MCP-1, IL-6, and IL-10) and the mice started to respond as early as 3 hours post rescue.

Another series concerns s.c. MDA-MB-231 tumors. In words: EC17 dose escalation cycles versus weekly dosing (Example 45). The format is in vivo, mice. Here is the method:
The effect of EC17 dose de-escalation was investigated on the anti-tumor activity and the toxicity (body weight changes) of CAR-T therapy. 8.5 million frozen anti-FITC CAR-T cells were thawed and i.v. injected into mice bearing s.c. MDA-MB-231 tumors (100-200 mm3). 500 nmol/kg EC17 was administered 2 days after CAR-T injection and caused sCRS in mice. […] The first group was dosed with 500 nmol/kg EC17 weekly (SIW), whereas the second group was dosed with two EC17 escalation cycles. Each cycle lasted for 2 weeks (14 days). The dosing schedule in each cycle included 5 nmol/kg EC17 at day 1, 50 nmol/kg EC17 at day 3, 500 nmol/kg EC17 on day 5. After 9 days break, the second escalation cycle started. Tumor sizes and body weights were monitored 2-3 times per week.

Molecules are shown by their SMILES.

Take `O=C([O-])c1ccccc1-c1c2ccc(=O)cc-2oc2cc([O-])ccc12.[Na+].[Na+]` [sodium fluorescein]: the “recovery from CRS” value with THP-1-FRβ tumors (6 μmol/kg, Group 3) is given as “completely recovered”. In addition, in the series on THP-1-FRβ tumors (mouse #10, rescue after first EC17 dose), the “CAR T cell functionality after rescue” value is “CAR T cell functionality was preserved”. In the series with MDA-MB-231 tumors (60 μmol/kg, 7 hours and 27 hours post rescue), the “mouse cytokine levels in blood” value is listed as “much lower than those in un-rescued mice”. For the same compound, in the series on MDA-MB-231 tumors (mouse, in vivo), the “earliest response post rescue” value is 3 h and the “median effective dose (mouse MCP-1, IL-6, IL-10)” value was “about 0.6 μmol/kg”. Besides, in the series on s.c. MDA-MB-231 tumors (6 umol/kg), the “rescue from sCRS” value is “successfully rescued”.

On to `Nc1nc2ncc(CNc3ccc(C(=O)NC(CCC(=O)NCCNC(=S)Nc4ccc(-c5c6ccc(=O)cc-6oc6cc(O)ccc56)c(C(=O)O)c4)C(=O)O)cc3)nc2c(=O)[nH]1` (stereo not shown) [EC17, FITC-Folate], for which, in the series with THP-1-FRβ tumors (500 nmol/kg SIW for 4 weeks, day 34 post CAR-T infusion), the “GFP+ leukemic cells in blood” value is recorded as “nearly undetectable in the blood”. Besides, the CRS grade in the series on THP-1-FRβ tumors (morning after first EC17 dose 500 nmol/kg, ~8.3 million CAR-T) is listed as about 3 grade. The “persistence of anti-leukemia activity post CAR T cell infusion” value in the series on THP-1-FRβ tumors (mouse, in vivo) stood at 47 days. The “EC17-treated mice with minimum tumor load at collection” value in the series with THP-1-FRβ tumors (weekly 500 nmol/kg, +/- one-time sodium fluorescein rescue) is reported as “five out of the 6”. Moreover, in the series on THP-1-FRβ tumors (weekly injections of EC17), the “CAR T cell phenotype” value was “central memory/effector memory phenotype”. For the same compound, the “mouse cytokine levels in blood (MCP-1, IL-6, IL-10, IFN-β, TNF-α)” value in the series on MDA-MB-231 tumors (EC17 dosed versus CAR-T without EC17) was “increased mouse cytokine levels”. Moreover, the “body weight loss of escalation group” value with s.c. MDA-MB-231 tumors (cycles of 5, 50, 500 nmol/kg at day 1, 3, 5) was “much less than that of the EC17 SIW group”.
